{"source": "patent US5643923A", "about": "“Quinuclidinyloxy-isoxazole compounds and their therapeutic uses” (Sankyo Company, Limited, priority 1990, dated 1997)", "key": {"[1]": {"target": "T1, 5-HT3 receptors (Rattus norvegicus, UniProt P35563)", "T1 sequence (P35563 24-483)": "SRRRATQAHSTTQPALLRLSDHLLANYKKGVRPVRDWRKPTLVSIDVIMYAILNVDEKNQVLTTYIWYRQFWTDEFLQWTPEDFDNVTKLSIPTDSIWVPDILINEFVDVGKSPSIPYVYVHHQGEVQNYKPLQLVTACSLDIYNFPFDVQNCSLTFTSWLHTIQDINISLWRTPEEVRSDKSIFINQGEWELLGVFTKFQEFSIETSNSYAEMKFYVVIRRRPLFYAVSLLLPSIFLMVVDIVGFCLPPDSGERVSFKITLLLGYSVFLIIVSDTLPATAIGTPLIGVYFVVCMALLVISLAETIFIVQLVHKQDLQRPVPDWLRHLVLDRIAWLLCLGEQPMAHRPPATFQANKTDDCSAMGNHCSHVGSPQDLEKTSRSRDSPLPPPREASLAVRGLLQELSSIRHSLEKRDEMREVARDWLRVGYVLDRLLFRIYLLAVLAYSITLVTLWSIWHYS", "test": "biochemical", "type": "binding", "description": "A membranous fraction prepared from the cerebral cortex of rats was incubated with the test compound and with ^3 H-GR65630 (to a final concentration of 1 nM, as a ligand to the 5-HT3 receptors) at 37° C. for 45 minutes. At the end of this time, the samples were filtered. The ^3 H radioactivity bound to the filter paper was determined by a scintillation counter as in Experiment 1."}, "[2]": {"target": "T2, M2 receptors (Rattus norvegicus, UniProt P10980)", "T2 sequence (P10980 1-466)": "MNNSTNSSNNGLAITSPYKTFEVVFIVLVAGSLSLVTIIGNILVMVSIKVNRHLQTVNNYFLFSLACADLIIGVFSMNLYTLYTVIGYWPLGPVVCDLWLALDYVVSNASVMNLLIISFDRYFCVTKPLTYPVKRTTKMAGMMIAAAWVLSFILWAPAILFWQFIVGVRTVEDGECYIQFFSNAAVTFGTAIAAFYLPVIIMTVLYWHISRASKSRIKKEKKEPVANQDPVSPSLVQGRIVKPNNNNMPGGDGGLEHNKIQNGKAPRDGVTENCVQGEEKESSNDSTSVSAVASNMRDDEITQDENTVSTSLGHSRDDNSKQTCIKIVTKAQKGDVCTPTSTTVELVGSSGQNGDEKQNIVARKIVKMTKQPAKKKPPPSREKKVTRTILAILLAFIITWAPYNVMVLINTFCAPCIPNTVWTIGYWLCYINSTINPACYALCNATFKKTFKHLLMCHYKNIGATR", "test": "biochemical", "type": "binding"}, "[3]": {"target": "T3, M1 receptors (Rattus norvegicus, UniProt P08482)", "T3 sequence (P08482 1-460)": "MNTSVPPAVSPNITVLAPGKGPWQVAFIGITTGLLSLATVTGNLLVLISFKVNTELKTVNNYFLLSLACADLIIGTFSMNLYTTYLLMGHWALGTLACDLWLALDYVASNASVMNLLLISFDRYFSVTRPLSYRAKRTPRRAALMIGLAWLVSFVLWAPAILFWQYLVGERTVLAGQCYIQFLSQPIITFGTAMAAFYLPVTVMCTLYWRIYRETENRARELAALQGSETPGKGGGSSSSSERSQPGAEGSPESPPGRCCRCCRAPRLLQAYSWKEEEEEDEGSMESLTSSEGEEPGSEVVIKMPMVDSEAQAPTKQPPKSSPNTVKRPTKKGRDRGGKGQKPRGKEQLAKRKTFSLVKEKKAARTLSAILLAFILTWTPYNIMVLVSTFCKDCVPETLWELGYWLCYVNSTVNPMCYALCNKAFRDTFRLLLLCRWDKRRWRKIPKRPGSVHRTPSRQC", "test": "biochemical", "type": "binding"}, "[4]": {"tested_on": "reserpine-induced ptosis in mice", "test": "Anti-reserpine effect: antagonistic effect against reserpine-induced ptosis", "type": "in vivo, mouse (ddY strain)", "details": "for Maximum inhibition rate (%): reserpine 2 mg/kg s.c., 90 minutes", "text": "It is considered that the sedation caused by the administration of reserpine or tetrabenazine to mice or rats produces an effect similar to the symptoms of clinical depression. Of the various pharmacological effects caused by these compounds, ptosis (drooping of the upper eyelid) and a reduction in body temperature have been widely used as indices of their activity, and it has been shown that any compound which inhibits either ptosis or lowering of the body temperature will also be active against the symptoms of clinical depression. Therefore, anti-reserpine or anti-tetrabenazine effects have been widely used for a long time as a method of screening for antidepressants. The test index used for the evaluation of the compounds of the present invention is the antagonistic effect of a test compound against reserpine-induced ptosis in mice.\nThe test animals employed were mature male mice of the ddY strain, 4 weeks old and each weighing 22 to 27 g. The animals were divided into groups, each including 3 mice. The compound under test was dissolved or suspended in an appropriate solvent [either physiological saline or a 0.5% CMC (carboxymethyl cellulose) solution] and administered orally to the mice of the test groups in the dose specified in the following Table 6. The mice in a control group were given only the solvent without any active compound, administered in a similar way. Immediately after administration,2 mg/kg of reserpine were administered subcutaneously to every mouse. After 90 minutes, it was determined how much the eyelids had closed (degree of ptosis) by bringing the mouse out of its cage and observing the shape of the eye.\nFrom the scores obtained, the inhibition rate at each dose level was calculated from the following equation: [formula]"}, "[5]": {"tested_on": "mice", "test": "Acute toxicity", "type": "in vivo, mouse", "details": "75 mg/kg, 5 days observation", "description": "Each of the compounds of Examples 3 and 4 was suspended in a 0.5% CMC solution, and the suspension was administered to mice in an amount sufficient to provide a dose of active compound of 75 mg/kg."}, "[6]": {"tested_on": "blood viscosity increase resulting from cerebral ischemia", "test": "Inhibition of blood viscosity increase resulting from cerebral ischemia", "type": "in vivo, rat (Wistar strain)", "details": "oral; one hour after carotid ligation; shear 37.5, 75, 150 and 375/sec", "description": "The test animals used were adult male rats of the Wistar strain. Each rat was administered orally either a solution of 3-(3-quinuclidinyloxy)isoxazole hydrochloride (the compound prepared as described in Example 4) in suspension in a 0.5% CMC vehicle or the vehicle itself. Immediately after administration, 40 mg/kg of pentobarbital was administered intraperitoneally for anesthesia. The rat was fixed at the dorsal position, and 0.6 ml of a blood sample was taken from the common jugular vein on one side. The viscosity of each sample was measured using a viscometer (Biorheolyzer, a trade name for product of Tokyo Keiki) at shear values of 37.5/sec, 75/sec, 150/sec and 375/sec. 0.5 ml of blood was then taken from the other side and its viscosity was measured in the same way.\nAfter the first two samples had been taken, the carotid arteries on both sides of each animal were ligated. One hour after ligation, in the case of the control animals (administered only the vehicle), the blood viscosity values had increased by between 5 and 20% at every shear rate (the slower the shear rate, the higher the viscosity)."}, "[7]": {"tested_on": "isolated guinea pig ileum (selective 5-HT3 agonist 2-methyl-5-HT)", "test": "Effects upon the isolated guinea pig ileum: inhibition of contraction by 2-methyl-5-HT", "details": "for Inhibition (%): 10^-6 M, contractile force by 2-methyl-5-HT, 30 minutes after addition", "description": "The ileum isolated from a guinea pig was hung in a Magnus cup filled with Tyrode's solution. The contractile force exerted by the ileum on the application of a selective 5-HT3 agonist, 2-methyl-5-HT, was determined using an isometric transducer. A test compound was then added to the bath and the contractile force was again measured 30 minutes after the addition. The inhibition rate on the contractile force was calculated."}, "[8]": {"details": "3H-GR65630 1 nM, rat cerebral cortex membrane, 37° C., 45 minutes"}, "[9]": {"details": "3H-pirenzepine 1 nM, rat cerebral cortex membrane, 30° C., 60 minutes, read-out: IC50 Pirenzp (a) (cerebral cortex)"}, "[10]": {"details": "ratio IC50 QNB (heart) / IC50 Pirenzp (cerebral cortex)"}}, "note": "Where a name gives a salt, the structure may show the parent alone. Read-outs that look alike come from different tables or passages of the source."}
{"smiles": "Clc1ccc(-c2cc(OC3CN4CCC3CC4)no2)cc1", "note": "(stereo not shown) [Example A7, 5-(p-Chlorophenyl)-3-(3-quinuclidinyloxy)isoxazole hydrochloride]", "values": [{"measurement": "IC50", "setting": "[1]", "result": 320, "unit": "nM"}]}
{"smiles": "Clc1c(OC2CCCNC2)noc1-c1ccccc1", "note": "(stereo not shown) [Example A8, 4-Chloro-5-phenyl-3-(3-piperidyloxy)isoxazole hydrochloride]", "values": [{"measurement": "IC50", "setting": "[1]; [8]", "result": 260, "unit": "nM"}]}
{"smiles": "Clc1ccc2onc(OC3CN4CCC3CC4)c2c1", "note": "(stereo not shown) [Example A6, 5-Chloro-3-(3-quinuclidinyloxy)-1,2-benzisoxazole]", "values": [{"measurement": "IC50", "setting": "[1]; [8]", "result": 180, "unit": "nM"}]}
{"smiles": "CN1CCC(Oc2noc3ccc(Cl)cc23)CC1.Cl", "note": "[Example A1, 5-Chloro-3-(1-methyl-4-piperidyloxy)-1,2-benzisoxazole hydrochloride]", "values": [{"measurement": "IC50", "setting": "[2]; read-out: IC50 QNB (b) (heart)", "result": 41000, "unit": "nM"}, {"measurement": "IC50", "setting": "[3]; [9]", "result": 1900, "unit": "nM"}, {"measurement": "M1 selectivity (b)/(a)", "setting": "[3]; [10]", "result": 22}]}
{"smiles": "Cc1cc(OC2CN3CCC2CC3)no1.Cl", "note": "(stereo not shown) [Example A4, 5-Methyl-3-(3-quinuclidinyloxy)isoxazole hydrochloride]", "values": [{"measurement": "Assessment", "setting": "[4]; 30 mg/kg po", "result": "± (from 41% to 70%)"}, {"measurement": "Maximum inhibition rate (%)", "setting": "[4]; 30 mg/kg po", "result": 45, "unit": "%"}, {"measurement": "Assessment", "setting": "[4]; 100 mg/kg po", "result": "+ (inhibition rates not less than 71%)"}, {"measurement": "Maximum inhibition rate (%)", "setting": "[4]; 100 mg/kg po", "result": 80, "unit": "%"}]}
{"smiles": "Cc1onc(OC2CN3CCC2CC3)c1Cl.Cl", "note": "(stereo not shown) [Example A2, 4-Chloro-5-methyl-3-(3-quinuclidinyloxy)isoxazole hydrochloride]", "values": [{"measurement": "Assessment", "setting": "[4]; 3 mg/kg po", "result": "- (not more than 40%)"}, {"measurement": "Maximum inhibition rate (%)", "setting": "[4]; 3 mg/kg po", "result": 60, "unit": "%"}, {"measurement": "Assessment", "setting": "[4]; 30 mg/kg po", "result": "+ (inhibition rates not less than 71%)"}, {"measurement": "Maximum inhibition rate (%)", "setting": "[4]; 30 mg/kg po", "result": 100, "unit": "%"}, {"measurement": "adverse symptoms", "setting": "[5]", "result": "nor did the mice exhibit any adverse symptoms"}, {"measurement": "deaths", "setting": "[5]", "result": "no deaths were observed"}]}
{"smiles": "O=C1CCCN1CC#CCN1CCCC1", "note": "[Example B1, Oxotremorine]", "values": [{"measurement": "IC50", "setting": "[2]", "result": 1200, "unit": "nM"}, {"measurement": "IC50", "setting": "[3]", "result": 1300, "unit": "nM"}, {"measurement": "M1 selectivity (b)/(a)", "setting": "[3]", "result": 0.9}]}
{"smiles": "Cl.c1cc(OC2CN3CCC2CC3)no1", "note": "(stereo not shown) [Example A3, 3-(3-Quinuclidinyloxy)isoxazole hydrochloride]", "values": [{"measurement": "inhibition of blood viscosity increase", "setting": "[6]", "result": "the increase was significantly inhibited at every shear rate"}, {"measurement": "Assessment", "setting": "[4]; 1 mg/kg po", "result": "- (not more than 40%)"}, {"measurement": "Maximum inhibition rate (%)", "setting": "[4]; 1 mg/kg po", "result": 21, "unit": "%"}, {"measurement": "Assessment", "setting": "[4]; 3 mg/kg po", "result": "± (from 41% to 70%)"}, {"measurement": "Maximum inhibition rate (%)", "setting": "[4]; 3 mg/kg po", "result": 57, "unit": "%"}, {"measurement": "Assessment", "setting": "[4]; 10 mg/kg po", "result": "+ (inhibition rates not less than 71%)"}, {"measurement": "Maximum inhibition rate (%)", "setting": "[4]; 10 mg/kg po", "result": 86, "unit": "%"}, {"measurement": "Assessment", "setting": "[4]; 30 mg/kg po", "result": "+ (inhibition rates not less than 71%)"}, {"measurement": "Maximum inhibition rate (%)", "setting": "[4]; 30 mg/kg po", "result": 100, "unit": "%"}, {"measurement": "adverse symptoms", "setting": "[5]", "result": "nor did the mice exhibit any adverse symptoms"}, {"measurement": "deaths", "setting": "[5]", "result": "no deaths were observed"}]}
{"smiles": "CCN1C(=O)CC2(CCN(C)CC2)C1=O", "note": "[Example B2]", "values": [{"measurement": "IC50", "setting": "[2]; read-out: IC50 QNB (b) (heart)", "result": 21000, "unit": "nM"}, {"measurement": "IC50", "setting": "[3]; [9]", "result": 3100, "unit": "nM"}, {"measurement": "M1 selectivity (b)/(a)", "setting": "[3]; [10]", "result": 6.8}]}
{"smiles": "c1csc(-c2cc(OC3CN4CCC3CC4)no2)c1", "note": "(stereo not shown) [Example A9, 3-(3-Quinuclidinyloxy)-5-(2-thienyl)isoxazole hydrochloride]", "values": [{"measurement": "IC50", "setting": "[1]", "result": 150, "unit": "nM"}]}
{"smiles": "CC1OC2(CS1)CN1CCC2CC1", "note": "(stereo not shown) [Example B3]", "values": [{"measurement": "IC50", "setting": "[2]; 3H-quinuclidinyl benzylate 0.12 nM, rat heart membrane, 30° C., 120 minutes, read-out: IC50 QNB (b) (heart)", "result": 14000, "unit": "nM"}, {"measurement": "IC50", "setting": "[3]; [9]", "result": 3600, "unit": "nM"}]}
{"smiles": "Cl.Clc1c(OC2CN3CCC2CC3)noc1-c1ccccc1", "note": "(stereo not shown) [Example A5, 4-Chloro-3-(3-quinuclidinyloxy)-5-phenylisoxazole hydrochloride]", "values": [{"measurement": "5-HT3 antagonist activity (in words)", "setting": "[7]", "result": "as potent an antagonist as ondansetron"}, {"measurement": "Inhibition (%)", "setting": "[7]", "result": 82, "unit": "%"}, {"measurement": "IC50", "setting": "[1]", "result": 220, "unit": "nM"}]}
{"smiles": "Cc1nccn1CC1CCc2c(c3ccccc3n2C)C1=O", "note": "(stereo not shown) [Example B5, Ondansetron, reference compound]", "values": [{"measurement": "Inhibition (%)", "setting": "[7]", "result": 79, "unit": "%"}]}
